We go through twelve compounds from patent US4149007A, “C14 Phenyl-substituted derivatives of prostaglandin analogues” (Miles Laboratories, Inc., priority 1977, dated 1979).

For assay [1], the system named is rat uterus. Nature of the assay: Effects on the rat uterus in vitro. Type of assay: cell-based. The settings on record: dose producing response 50% that of carbachol. The procedure:
(B) effect on the rat uterus in vitro;
The uterine stimulant effect of test compounds was determined in segments of uterus obtained from rats (140-160 g) pretreated subcutaneously with 1 mg/kg of diethylstilbesterol 18 hours before the experiment. The tissues were placed in 10 ml chambers filled with de-Jalon solution at 29° C., were aerated and bubbled with 95% O2 and 5% CO2, and were prepared for isometric recording with force displacement transducers. Preparations were stretched to an initial tension of 1 g and were left undisturbed for 30 minutes. Carbachol (1 mcg/ml) was then added to the bath and a response was recorded. After a ten minute interval the carbachol procedure was repeated. Responses to increasing concentrations of a test compound (0.001 to 10 mcg/ml with one log intervals) were then recorded every 10 minutes. Preparations were washed four times after each response. All doses of compounds were administered in a 0.1 ml volume. Because it has been observed that the magnitude of the second response to carbachol (approximately 10% greater than the first) is close to the maximal response of the tissue, such value was taken as a measure of the sensitivity of a particular segment. Responses to each concentration of the test compound were expressed in terms of percentage of the second response to carbachol and the ED50 (dose producing a response 50% that of carbachol) was calculated graphically.
Activity was scored according to the following scale: […]

In assay [2] the test system is female reproductive system. The note with it: cited from earlier work; for labor / abortion effect: inducing labor, early pregnancy.
Assay [3] deals with motor pathways in the central nervous system. The note with it: cited from earlier work.
Assay [4] concerns tracheal smooth muscle. The note with it: in vitro, most mammalian respiratory tracts; cited from earlier work.
In assay [5] the test system is growth hormone. The note with it: rats; cited from earlier work.
Assay [6] deals with adrenal glands. The settings on record: hypophysectomized rats; cited from earlier work.
Assay [7] deals with rat stomach fundus. Nature of the assay: Cascade assay: rat stomach fundus. Type of assay: cell-based. The note with it: in vitro, smooth muscle stimulant ED50 scored. The protocol:
(§1) (A) effects on the rat stomach, rat colon, chick rectum, and rabbit aorta in vitro (cascade assay);
(§2) The smooth muscle stimulant effects of test compounds were determined simultaneously in four different tissues that are known to be reactive to naturally occurring prostaglandins. Segments of rat stomach fundus, rat colon, chick rectum and rabbit aortic strip were obtained as described by: Vane, J. R., Brit. J. Pharmacol., 12: 344 (1957); Regoli, D. and Vane, J. R., Brit. J. Pharmacol., 23: 351 (1964); Mann, M. and West, G. B., Brit. J. Pharmacol., 5: 173 (1950); and Furchgott, R. F. and Bhadrakom, R., J. Pharmacol. Exper. Ther., 108: 129 (1953). One end of each preparation was tied to the bottom of a 10 ml tissue chamber and the other to a force displacement transducer (Grass FT-03) for continuous tension recording. The stomach, colon, and rectum segments were stretched to an initial tension of 1 g, while the aortic strip was subjected to 4 g. All preparations were left undisturbed for 1 hour prior to testing. […]
(§3) Test compounds were diluted from stock solutions so as to administer quantities ranging from 0.0001 to 100,000 ng in a volume of 0.5 ml. […] Maximal increases in tension after each dose were measured and the results were used to plot dose-response curves. […]
(§4) Activity in each tissue was scored according to the following scale: […]

Assay [8] concerns rat colon. Nature of the assay: Cascade assay: rat colon. Type of assay: cell-based. The settings on record: in vitro, smooth muscle stimulant ED50 scored. The procedure:
as §1, §2, §3, §4

Assay [9] has as its system chick rectum. Nature of the assay: Cascade assay: chick rectum. Type of assay: cell-based. The note with it: in vitro, smooth muscle stimulant ED50 scored. The procedure:
as §1, §2, §3, §4

Assay [10] has as its system rabbit aortic strip. Description: Cascade assay: rabbit aortic strip. Type of assay: cell-based. The settings on record: in vitro, smooth muscle stimulant ED50 scored. The procedure:
as §1, §2, §3, §4

For assay [11], the system named is rat. Nature of the assay: Effects on gastric secretion in the rat. Type of assay: in vivo. The note with it: pylorus ligated, 1.5 mg/kg s.c. twice (total 3.0 mg/kg), 4 hours. The protocol: (F) effect on gastric secretion in the rat;
A procedure based on that described by Lipman, W. (J. Pharm. Pharmacol., 21: 335 [1968]) was used to assess the influence of test compounds on gastric secretion. Rats of one sex weighing 150 to 200 g were randomly divided into groups of six animals each and fasted for 48 hours previous to the experiments, water being available ad libitum. The animals were anesthetized with ether, the abdomen opened through a midline incision, and the pylorus ligated. Test compounds were diluted from stock solution so as to administer a dose of 1.5 mg/kg in a volume equivalent to 1 ml/kg. Subcutaneous injections were applied immediately after surgery and again 2 hours later, so that a total dose of 3.0 mg/kg was administered. Dilutions were made with phosphate buffer (pH 7.38) as recommended by Lee et al. (Prostaglandins, 3: 29 [1973]) in order to insure adequate stability of drugs at the subcutaneous depot. […]
Four hours after pyllric ligation the animals were killed with ether, the cardias ligated, and the stomachs removed. The volume of gastric secretion was measured and the contents centrifuged at 5000 rpm for 10 minutes. […]
Volume and total acid values of the treated group were compared with those of the controls […]. Antisecretory activity was scored according to the following scale: […]

In assay [12] the test system is human platelet. Nature of the assay: Inhibition of human platelet aggregation in vitro. The note with it: human platelet rich plasma, collagen-induced. Type of assay: cell-based. The procedure: (E) effect on human platelet aggregation in vitro; and
The ability of test compounds to inhibit platelet aggregation was determined by a modification of the turbidometric technique of Born, G. V. R. (Nature, 194: 927 [1962]). Blood was collected from human volunteers, who had not ingested aspirin or aspirin-containing products within the preceding two weeks, in heparinized containers and was allowed to settle for one (1) hour. The platelet rich plasma (prp) supernates were collected and pooled. Siliconized glassware was used throughout.
In a representative assay, 1.9 ml of PRP and 0.2 ml of test compound at the appropriate concentration ([…]), or 0.2 ml of distilled water (control procedure) were placed in sample cuvettes. The cuvettes were placed in a 37° C. incubation block for 15 minutes, and then in a spectrophotometer linked to a strip chart recorder. After 30-60 seconds, 0.2 ml of a solution, prepared by diluting a calf-skin collagen solution 1:9 with Tyrodes' Solution, was added to each cuvette. Platelet aggregation was evidenced by a decrease in optical density.
An ED50 value was then determined graphically.

In the case of `CCCCCC(O)/C(=C/C1CCC(=O)C1CCCCCCC(=O)OC)c1ccccc1` (racemic) [Example 5, Methyl dl-14-phenyl-15R,S-hydroxy-9-oxoprost-13E-en-1-oate], the “Rat Uterus: activity value (ED50)” value in assay [1] is 0 (>10).
In the case of `CCCCC[C@@H](O)/C(=C/C1CCC(=O)C1C/C=C\CCCC(=O)O)c1ccccc1` (mixture of isomers) [Example 11, dl-14-Phenyl-15R-hydroxy-9-oxoprosta-5Z-13E-dien-1-oic acid], the “Rat Uterus: activity value (ED50)” value in assay [1] is 0 (>10).
On to `CCCCC[C@H](O)/C(=C/[C@H]1[C@H](O)CC(=O)[C@@H]1CCCCCCC(=O)O)c1ccccc1` [Example 2, 14-Phenyl-11α,15S-dihydroxy-9-oxoprost-13E-en-1-oic acid], for which the “Rat Uterus: activity value (ED50)” value in assay [1] is 0 (>10).
In the case of `CCCCC[C@H](O)/C(=C/C1CCC(=O)C1C/C=C\CCCC(=O)O)c1ccccc1` (mixture of isomers) [Example 10, dl-14-Phenyl-15S-hydroxy-9-oxoprosta-5Z,13E-dien-1-oic acid], the “Rat Uterus: activity value (ED50)” value in assay [1] was 0 (>10).
Take `CCCCC[C@H](O)/C=C/[C@@H]1[C@@H](C/C=C\CCCC(=O)O)[C@@H](O)C[C@H]1O` [PGF2α]: the “fertility / gestation effect” value in assay [2] (female reproductive system) is “has contragestational effects”. For the same compound, the “labor / abortion effect” value in assay [2] was “induces spontaneous abortions in early pregnancy”. The “transmission along motor pathways in the central nervous system” value in assay [3] is “facilitates transmission along motor pathways in the central nervous system”. The “effect on tracheal smooth muscle” value in [4] is given as “contracts such smooth muscle”.
For the compound `CCCCC[C@H](O)/C(=C/[C@H]1[C@H](O)CC(=O)[C@@H]1C/C=C\CCCC(=O)OCC)c1ccccc1` [Example 7B, Ethyl-14-Phenyl-11α,15S-dihydroxy-9-oxoprosta-5Z-13E-dien-1-oate], the “Rat Uterus: activity value (ED50)” value in assay [1] is reported as 0 (>10).
On the same count and under the same terms, the figure for `CCCCC[C@@H](O)/C(=C/C1CCC(=O)C1C/C=C\CCCC(=O)OC)c1ccccc1` (mixture of isomers) [Example 8, Methyl dl-14-phenyl-15R-hydroxy-9-oxoprosta-5,13E-dien-1-oate] is 0 (>10); for `CCCCCC(O)/C(=C/[C@@H]1[C@@H](C/C=C\CCCC(=O)O)[C@@H](O)C[C@H]1O)c1ccccc1` (stereo partly drawn) [Example 14, 14-Phenyl-9α,11α,15R,S-trihydroxyprosta-5Z,13E-dien-1-oic acid] it is 0 (>10).
`CCCCC[C@H](O)/C=C/[C@H]1[C@H](O)CC(=O)[C@@H]1C/C=C\CCCC(=O)O` [PGE2]: the “release of the growth hormone” value in assay [5] is “increase the release of the growth hormone”. Further, the “steroidogenesis in the adrenal glands” value in assay [6] is recorded as “stimulate stereoidogenesis in the adrenal glands”. Also, in assay [2], the “labor / abortion effect” value was “produces potent oxytocic effects in inducing labor”. Also, the “effect on tracheal smooth muscle” value in assay [4] is reported as “relax”.
For the compound `CCCCC[C@H](O)/C(=C/C1CCC(=O)C1C/C=C\CCCC(=O)OC)c1ccccc1` (mixture of isomers) [Example 9, Methyl dl-14-phenyl-15S-hydroxy-9-oxoprosta-5Z,13E-dien-1-oate], the “Rat Uterus: activity value (ED50)” value in assay [1] is listed as 0 (>10).
Consider `CCCCC[C@@H](O)/C(=C/[C@H]1[C@H](O)CC(=O)[C@@H]1CCCCCCC(=O)O)c1ccccc1` [Example 3, 14-phenyl-11α,15R-dihydroxy-9-oxoprost-13E-en-1-oic acid], for which the “Rat Uterus: activity value (ED50)” value in assay [1] is given as 0 (>10).
Consider `CCCCC[C@@H](O)/C(=C/C1C=CC(=O)C1CCCCCCC(=O)O)c1ccccc1` (stereo partly drawn) [Example 12, 14-Phenyl-15R-hydroxy-9-oxo-ent-prosta-10,13E-dien-1-oic acid], for which the “Cascade, Stomache: activity value (ED50)” value in assay [7] is 0 (>10000). For the same compound, the “Cascade, Colon: activity value (ED50)” value in [8] is recorded as 0 (>10000). Also, the “Cascade, Rectum: activity value (ED50)” value in [9] is 0 (>10000). The “Cascade, Aorta: activity value (ED50)” value in assay [10] is on record as 0 (>10000). The “Rat Uterus: activity value (ED50)” value in [1] is reported as 0 (>10). Further, the “Gastric Secretion: activity value (% decrease in acidity)” value in assay [11] is on record as 0 (<26). Besides, the “Platelet Aggregation: activity value (ED50)” value in assay [12] is 1 (>0.1 and ≤1.0).
